Experimental data published in patent US20130202594A1, “ALK1 Antagonists and Their Uses in Treating Renal Cell Carcinoma” (priority 2012, published 2013).

Columns and labels:
A498 cells = test: A498 human RCC tumor xenograft model; type: in vivo, mouse; conditions: for tumor growth, single agent: 10 mg/kg IP 3 times per week, vs Fc
Method: A498 cells, a VHL-deficient human RCC cell line (see Iliopoulos et al., Nature Medicine 1995; 1:822-6), was obtained from the American Type Culture Collection, and cultured in Eagle's minimal essential medium. Media was supplemented with 2 mmol/L L-glutamine, 10% FCS, and 1% streptomycin (50 μg/mL), and cells were cultured at 37° C. with 5% CO2. […] cells were harvested from subconfluent cultures by a brief exposure to 0.25% trypsin and 0.02% EDTA. Trypsinization was stopped with medium containing 10% fetal bovine serum, and the cells were washed once in serum-free medium and resuspended in PBS. Only suspensions consisting of single cells with >90% viability were used for the injections.
To establish human RCC xenografts, A498 tumor cells were injected subcutaneously (1×10^7 cells) into the flanks of 6- to 8-week-old female athymic nude/beige mice (Charles River Laboratories) that were of 20 g average body weight. Tumors developed in >80% of the mice and were usually visible within a few days of implantation. Mice were treated with Fc or ALK-Fc when the tumors had grown to a diameter of 12 mm. ALK-Fc (10 mg/kg) was administered 3 times per week intraperitoneally. Tumors were measured daily while mice were on treatment.
A498 cell culture and xenograft establishment was performed as described in Example 14. Mice were treated with vehicle plus Fc, sunitinib plus Fc, vehicle plus ALK-Fc, or subitinib plus ALK-Fc when the tumors had grown to a diameter of 12 mm. Sunitinib (53.6 mg/kg; Pfizer) was administered 6 of 7 days per week by gavage beginning. ALK1-Fc (10 mg/kg) was administered 3 times per week intraperitoneally. Tumors were measured daily while mice were on treatment.

[1] = system: BMP10 signaling (Smad1/5/8 reporter) in T98G cells; test: BMP10 signaling reporter assay in T98G cells transfected with ALK1; type: cell-based, human; conditions: 65 ng/ml, BMP10 1 ng/ml
Method: Effects of hALK-Fc on BMP10 signaling were determined in a cell-based assay, in which human glioblastoma T98G cells were transfected with three plasmids: 1) an expression construct encoding full-length ALK1; 2) a firefly-luciferase reporter construct (see Example 3) responsive to Smad1/5/8-mediated signaling, and 3) a Renilla-luciferase control construct. Treatment of transfected cells with recombinant human BMP10 (1 ng/ml) strongly stimulated firefly luciferase activity relative to Renilla luciferase activity (FIG. 16). Omission of the ALK1 expression construct reduced BMP10-stimulated activity by approximately two-thirds (data not shown), thus implicating ALK1 as a major mediator of the BMP10 signal. Treatment of fully transfected cells with hALK1-Fc (65 ng/ml) and BMP10 (1 ng/ml) reduced the transcriptional response compared to BMP10 alone by more than 80% (FIG. 16).

**Q.** Which results are given for “hALK1-Fc: extracellular domain of human ALK1 (amino acids 22-120) fused to a human IgG1 Fc with a minimal linker (SEQ ID NO:3/14)”?
**A.** tumor growth, single agent (A498 cells): inhibit tumor growth as a single agent; tumor growth, single agent (A498 cells; listed as ALK-Fc): dramatically slowed tumor growth; effect on tumor growth inhibiting activity of sunitinib (A498 cells; administered in combination with sunitinib): substantially increased the tumor growth inhibiting activity of sunitinib; tumor growth (A498 cells; combination study, sunitinib 53.6 mg/kg gavage, ALK1-Fc 10 mg/kg IP): slowed tumor growth; reduction of transcriptional response compared to BMP10 alone [1]: more than 80%
